Here are results for six molecules from patent US7211423B2 (Bristol-Myers Squibb Co., priority 2004, dated 2007).

One experiment concerns the target T1, recombinant human ACC2 (Homo sapiens, UniProt O00763, V2141I).
T1 construct: To delete the NH2-terminus 148 amino acid of human ACC2; 6xHis (C); made in house; host or cells: Sf9 insect cells infected with recombinant baculovirus (pBlueBac-human-ACC2-Delta148-V5-Myc-His-WT); purified on a c-Myc-5 IgG column
Briefly: ACC enzyme activity assay ([14C]bicarbonate fixation) with purified recombinant human ACC2. It is filed as biochemical. The settings on record: for Km: substrate varied, all other reagents saturating, 37° C.; for IC50: concentration dependent inhibition of recombinant human ACC2. Here is the method: ACC enzymatic assays were carried out essentially according to Tanabe et al. (Tanabe et al., (1981) Methods Enzymol. 71 Pt C, 5–16) with modifications. […] Aliquots of 30 μl of 25 mM KH[^14C]O3 (specific activity 1.3 μCi/μmol, final KH[^14C]O3, concentration 5 mM) was then added to the mixture to initiate the reaction which was carried out for 10 min at 37° C. At the end, the reactions were quenched with 50 μl 2 N HCl and the vials were heated for 2 hours at 80° C. to remove excess bicarbonate as ^14CO2. Scintillant was then added and the acid-stable malonyl CoA remaining in the vial was counted in a scintillation counter. ACC specific activities were expressed as nmol/min/mg protein.

The next experiment has as its target Rat ACC1 (Rattus norvegicus, UniProt P11497). As to conditions: literature value, Trumble et al. (1995); cited from earlier work.
A further experiment concerns Rat ACC2. The settings on record: Trumble et al. (1995), cited from earlier work; for IC50: literature value for rat ACC2 enzyme.

T1 sequence (O00763 149-2458 V2141I): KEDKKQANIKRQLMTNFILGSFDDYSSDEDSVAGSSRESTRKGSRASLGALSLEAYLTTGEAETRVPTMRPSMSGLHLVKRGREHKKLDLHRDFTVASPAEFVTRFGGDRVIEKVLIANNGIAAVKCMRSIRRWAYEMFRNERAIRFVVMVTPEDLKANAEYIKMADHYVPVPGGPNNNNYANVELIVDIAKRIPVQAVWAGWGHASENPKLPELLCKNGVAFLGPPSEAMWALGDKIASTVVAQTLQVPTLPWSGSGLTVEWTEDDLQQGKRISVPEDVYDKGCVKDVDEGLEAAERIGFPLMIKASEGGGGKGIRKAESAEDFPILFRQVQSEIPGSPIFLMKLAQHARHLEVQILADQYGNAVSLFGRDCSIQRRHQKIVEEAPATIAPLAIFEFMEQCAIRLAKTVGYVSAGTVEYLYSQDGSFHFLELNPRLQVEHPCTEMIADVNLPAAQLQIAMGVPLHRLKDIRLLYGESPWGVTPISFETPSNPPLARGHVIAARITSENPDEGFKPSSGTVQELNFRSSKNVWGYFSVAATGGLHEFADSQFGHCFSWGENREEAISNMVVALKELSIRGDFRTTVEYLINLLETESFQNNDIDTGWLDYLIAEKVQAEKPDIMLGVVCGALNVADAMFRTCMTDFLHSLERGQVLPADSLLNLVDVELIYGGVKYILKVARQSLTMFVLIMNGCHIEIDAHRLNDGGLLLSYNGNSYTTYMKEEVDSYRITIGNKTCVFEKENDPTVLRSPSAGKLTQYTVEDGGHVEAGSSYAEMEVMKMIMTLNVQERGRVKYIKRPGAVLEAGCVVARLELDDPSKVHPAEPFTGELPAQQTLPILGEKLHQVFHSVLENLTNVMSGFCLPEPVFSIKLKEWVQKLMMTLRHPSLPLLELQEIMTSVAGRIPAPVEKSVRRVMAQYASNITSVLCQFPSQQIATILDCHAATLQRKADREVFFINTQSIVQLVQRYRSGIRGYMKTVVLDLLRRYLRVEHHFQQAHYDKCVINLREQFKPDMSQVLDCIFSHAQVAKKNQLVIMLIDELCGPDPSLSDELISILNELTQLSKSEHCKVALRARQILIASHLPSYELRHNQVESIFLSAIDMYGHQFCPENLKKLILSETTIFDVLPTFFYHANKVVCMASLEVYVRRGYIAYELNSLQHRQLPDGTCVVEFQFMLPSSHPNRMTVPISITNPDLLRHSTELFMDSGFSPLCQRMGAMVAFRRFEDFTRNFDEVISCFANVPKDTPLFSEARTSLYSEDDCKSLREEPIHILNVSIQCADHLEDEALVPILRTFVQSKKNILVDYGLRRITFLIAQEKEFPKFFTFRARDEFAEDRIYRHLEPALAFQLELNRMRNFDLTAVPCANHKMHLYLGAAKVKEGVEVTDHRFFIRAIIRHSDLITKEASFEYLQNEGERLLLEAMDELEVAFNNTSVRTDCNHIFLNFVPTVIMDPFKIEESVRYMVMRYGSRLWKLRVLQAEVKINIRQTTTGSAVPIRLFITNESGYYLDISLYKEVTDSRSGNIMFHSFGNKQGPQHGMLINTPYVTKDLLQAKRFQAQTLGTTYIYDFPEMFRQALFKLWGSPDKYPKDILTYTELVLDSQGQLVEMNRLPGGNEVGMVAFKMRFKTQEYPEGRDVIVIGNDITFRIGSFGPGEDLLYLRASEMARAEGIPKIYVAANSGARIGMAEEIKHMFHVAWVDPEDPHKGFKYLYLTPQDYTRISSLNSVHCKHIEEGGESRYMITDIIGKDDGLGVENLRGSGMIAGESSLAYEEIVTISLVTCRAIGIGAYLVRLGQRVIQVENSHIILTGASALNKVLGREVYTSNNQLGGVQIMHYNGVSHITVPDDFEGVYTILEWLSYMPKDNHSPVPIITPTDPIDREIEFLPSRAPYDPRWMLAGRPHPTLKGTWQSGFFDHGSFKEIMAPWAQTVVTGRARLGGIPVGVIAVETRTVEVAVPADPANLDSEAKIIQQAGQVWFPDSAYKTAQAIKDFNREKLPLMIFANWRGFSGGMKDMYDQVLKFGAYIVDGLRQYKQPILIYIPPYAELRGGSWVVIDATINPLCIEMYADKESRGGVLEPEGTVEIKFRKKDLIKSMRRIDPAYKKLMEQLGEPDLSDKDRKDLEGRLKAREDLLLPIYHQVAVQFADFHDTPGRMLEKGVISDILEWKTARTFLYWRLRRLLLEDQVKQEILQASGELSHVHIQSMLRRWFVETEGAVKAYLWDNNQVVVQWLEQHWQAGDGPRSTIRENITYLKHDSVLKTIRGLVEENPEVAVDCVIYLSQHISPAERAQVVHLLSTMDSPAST

By Km is commonly meant the concentration of substrate that gives half-maximal velocity. Regarding `Nc1ncnc2c1ncn2[C@@H]1O[C@H](COP(=O)(O)OP(=O)(O)OP(=O)(O)O)[C@@H](O)[C@H]1O` [ATP], the Km at recombinant human ACC2 is 270 µM; at Rat ACC1, 110 µM; in the experiment on Rat ACC2 (literature value), 58 µM.
As to `CC(=O)SCCNC(=O)CCNC(=O)[C@H](O)C(C)(C)COP(=O)(O)OP(=O)(O)OC[C@H]1O[C@@H](n2cnc3c(N)ncnc32)[C@H](O)[C@@H]1OP(=O)(O)O` [Acetyl CoA, acetyl CoA], the Km was 22 µM at Rat ACC1 and 32 µM in the experiment with Rat ACC2 (literature value).
In the case of `O=C(O)CC(O)(CC(=O)O)C(=O)O` [Citrate], the Kact is listed as 3 mM on Rat ACC1 and 2.1 mM in the experiment with Rat ACC2 (literature value).
With `O=C(O)O` [HCO3^−, bicarbonate], the Km is 5000 µM at recombinant human ACC2, 2700 µM on Rat ACC1 and 2300 µM in the experiment with Rat ACC2 (literature value).
In general, IC50 refers to the point on the concentration scale where inhibition reaches its midpoint. On to `CC(C)(COP(=O)(O)OP(=O)(O)OC[C@H]1O[C@@H](n2cnc3c(N)ncnc32)[C@H](O)[C@@H]1OP(=O)(O)O)[C@@H](O)C(=O)NCCC(=O)NCCSC(=O)CC(=O)O` [malonyl CoA], for which the IC50 at recombinant human ACC2 was 26.7 µM; in the experiment with Rat ACC2, 10.6 µM.
Regarding `CCCCCCCCCCCCCCCC(=O)SCCNC(=O)CCNC(=O)[C@H](O)C(C)(C)COP(=O)(O)OP(=O)(O)OC[C@H]1O[C@@H](n2cnc3c(N)ncnc32)[C@H](O)[C@@H]1OP(=O)(O)O` [palmitoyl CoA], the IC50 was 4.4 µM on recombinant human ACC2 and 2.2 µM in the experiment on Rat ACC2.
